Data: article PMC12485897, “Characterization of the thermophilic xylanase Fsa02490Xyn from the hyperthermophile Fervidibacter sacchari belonging to glycoside hydrolase family 10” (FEBS Open Bio, 2025)

Test system: T1, Fsa02490Xyn
T1 construct: TAT signal peptide removed (mature 430 residues, 48 kDa); N-terminal 6xHis tag, GB1 solubility tag and TEV site kept (~53 kDa expected); codon-optimized, pET21b, E. coli T7 Express; monomer
Experiment: para-nitrophenol release, absorbance […] nm; Lineweaver-Burk plot
Format: biochemical, Fervidibacter sacchari
Conditions: pH 7.5, 90 °C, 11 min, 0.697 μM enzyme

Km: 2380 µM
Compound: O=[N+]([O-])c1ccc(O[C@@H]2OC[C@@H](O[C@@H]3OC[C@@H](O)[C@H](O)[C@H]3O)[C@H](O)[C@H]2O)cc1 [pNPX2]
